From ChEMBL document CHEMBL3885861, “Open TG-GATES”

Organism: Rattus norvegicus
Assay: Open TG-GATES - Regimen: Single
Type: toxicity, organism-based, Sprague-Dawley
Parameters: regimen Single, gender Male, age 6 weeks
Settings: in vivo, po, 2000 mg/kg, route gavage, dose level High; for APTT / Bas / Eos / Fbg / Hb / Ht / Lym / MCH / MCHC / MCV / Mono / Neu / PT / Plat / RBC / Ret / WBC: tissue Blood; for KIDNEY_L / KIDNEY_R / KIDNEY_TOTAL: tissue Kidney; for LIVER: tissue Liver; for A/G / ALP / ALT / AST / BUN / CRE / Ca / Cl / DBIL / GLC / IP / K / LDH / Na / PL / RALB / TBIL / TC / TG / TP / gamma-GTP: tissue Plasma

Work on `CCOc1ccc(NC(=O)CC(C)O)cc1` (configuration not stated) [BUCETIN] yielded a TERMINAL_BW (3 h) of 211.9 g, an APTT (3 h) of 16.2 s and a Bas (3 h) of 0%. The Eos (3 h) was 1%, the Fbg (3 h) was 308.4 mg/dL and the Hb (3 h) was 13.1 g/dL. The Ht (3 h) was 38.8%, the Lym (3 h) was 74.8% and the MCH (3 h) was 20.8 pg. It also gave an MCHC (3 h) of 33.8%, an MCV (3 h) of 61.7 fL and a Mono (3 h) of 2.8%. For the same molecule, the Neu (3 h) was 21%, the PT (3 h) was 13.7 s and the Plat (3 h) was 123.8 x10_4/uL. The RBC (3 h) was 628.8 x10_4/ul, the Ret (3 h) was 8.2% and the WBC (3 h) was 70.6 x10_2/uL. It also gave a KIDNEY_L (3 h) of 0.9 g, a KIDNEY_R (3 h) of 0.9 g and a KIDNEY_TOTAL (3 h) of 1.9 g. For the same molecule, the LIVER (3 h) was 9.3 g, the A/G (3 h) was 0.9 and the ALP (3 h) was 1367.8 IU/L. It also gave an ALT (3 h) of 30.4 IU/L, an AST (3 h) of 66 IU/L and a BUN (3 h) of 9.2 mg/dL. It also gave a CRE (3 h) of 0.1 mg/dL, a Ca (3 h) of 10.8 mg/dL and a Cl (3 h) of 103.8 meq/L. It also gave a DBIL (3 h) of 0.032 mg/dL, a GLC (3 h) of 198.4 mg/dL and an IP (3 h) of 9.5 mg/dL. For the same molecule, the K (3 h) was 4.1 meq/L, the LDH (3 h) was 67 IU/L and the Na (3 h) was 141 meq/L. For the same molecule, the PL (3 h) was 148 mg/dL, the RALB (3 h) was 2.5 g/dL and the TBIL (3 h) was 0.054 mg/dL. The TC (3 h) was 83.4 mg/dL, the TG (3 h) was 52.2 mg/dL and the TP (3 h) was 5.4 g/dL. For the same molecule, the gamma-GTP (3 h) was 1.2 IU/L, the TERMINAL_BW (6 h) was 209.3 g and the APTT (6 h) was 21.1 s. The Bas (6 h) was 0.2%, the Eos (6 h) was 0.4% and the Fbg (6 h) was 315.2 mg/dL. The Hb (6 h) was 13.7 g/dL, the Ht (6 h) was 40.6% and the Lym (6 h) was 79%. The MCH (6 h) was 20.7 pg, the MCHC (6 h) was 33.7% and the MCV (6 h) was 61.2 fL. For the same molecule, the Mono (6 h) was 2.2%, the Neu (6 h) was 17.8% and the PT (6 h) was 13.5 s. It also gave a Plat (6 h) of 124.4 x10_4/uL, an RBC (6 h) of 662.8 x10_4/ul and a Ret (6 h) of 8.2%. The WBC (6 h) was 64.5 x10_2/uL, the KIDNEY_L (6 h) was 0.9 g and the KIDNEY_R (6 h) was 0.9 g. The KIDNEY_TOTAL (6 h) was 1.9 g, the LIVER (6 h) was 8.5 g and the A/G (6 h) was 0.9. The ALP (6 h) was 1336.4 IU/L, the ALT (6 h) was 36.2 IU/L and the AST (6 h) was 68.6 IU/L. It also gave a BUN (6 h) of 8.4 mg/dL, a CRE (6 h) of 0.1 mg/dL and a Ca (6 h) of 10.6 mg/dL. For the same molecule, the Cl (6 h) was 102.2 meq/L, the DBIL (6 h) was 0.032 mg/dL and the GLC (6 h) was 201.8 mg/dL. For the same molecule, the IP (6 h) was 10.1 mg/dL, the K (6 h) was 3.7 meq/L and the LDH (6 h) was 79.4 IU/L. For the same molecule, the Na (6 h) was 141.2 meq/L, the PL (6 h) was 147.4 mg/dL and the RALB (6 h) was 2.6 g/dL. The TBIL (6 h) was 0.048 mg/dL, the TC (6 h) was 85.2 mg/dL and the TG (6 h) was 27.6 mg/dL. The TP (6 h) was 5.5 g/dL, the gamma-GTP (6 h) was 1.4 IU/L and the TERMINAL_BW (9 h) was 208.4 g. The APTT (9 h) was 18.5 s, the Bas (9 h) was 0% and the Eos (9 h) was 0.8%. The Fbg (9 h) was 314.8 mg/dL, the Hb (9 h) was 13.3 g/dL and the Ht (9 h) was 39%. For the same molecule, the Lym (9 h) was 80.6%, the MCH (9 h) was 20.8 pg and the MCHC (9 h) was 34%. The MCV (9 h) was 61.1 fL, the Mono (9 h) was 2.2% and the Neu (9 h) was 16.2%. For the same molecule, the PT (9 h) was 14.1 s, the Plat (9 h) was 119.7 x10_4/uL and the RBC (9 h) was 639.8 x10_4/ul. For the same molecule, the Ret (9 h) was 8.3%, the WBC (9 h) was 54.6 x10_2/uL and the KIDNEY_L (9 h) was 0.9 g. For the same molecule, the KIDNEY_R (9 h) was 0.9 g, the KIDNEY_TOTAL (9 h) was 1.9 g and the LIVER (9 h) was 8.2 g. For the same molecule, the A/G (9 h) was 0.9, the ALP (9 h) was 1215 IU/L and the ALT (9 h) was 28.8 IU/L. It also gave an AST (9 h) of 62.8 IU/L, a BUN (9 h) of 8.2 mg/dL and a CRE (9 h) of 0.1 mg/dL. It also gave a Ca (9 h) of 10.5 mg/dL, a Cl (9 h) of 103.4 meq/L and a DBIL (9 h) of 0.042 mg/dL. It also gave a GLC (9 h) of 199.2 mg/dL, an IP (9 h) of 9.8 mg/dL and a K (9 h) of 4.1 meq/L. It also gave an LDH (9 h) of 64.2 IU/L, a Na (9 h) of 140.6 meq/L and a PL (9 h) of 150.6 mg/dL. It also gave an RALB (9 h) of 2.6 g/dL, a TBIL (9 h) of 0.052 mg/dL and a TC (9 h) of 82.6 mg/dL. It also gave a TG (9 h) of 43.6 mg/dL, a TP (9 h) of 5.5 g/dL and a gamma-GTP (9 h) of 1 IU/L. For the same molecule, the TERMINAL_BW (24 h) was 202.1 g, the APTT (24 h) was 17.9 s and the Bas (24 h) was 0.4%. For the same molecule, the Eos (24 h) was 0.8%, the Fbg (24 h) was 294.2 mg/dL and the Hb (24 h) was 14 g/dL. For the same molecule, the Ht (24 h) was 41.4%, the Lym (24 h) was 79.2% and the MCH (24 h) was 20.9 pg. For the same molecule, the MCHC (24 h) was 33.8%, the MCV (24 h) was 61.7 fL and the Mono (24 h) was 3%. The Neu (24 h) was 16%, the PT (24 h) was 14.4 s and the Plat (24 h) was 128.9 x10_4/uL. For the same molecule, the RBC (24 h) was 670 x10_4/ul, the Ret (24 h) was 7.1% and the WBC (24 h) was 75.9 x10_2/uL. For the same molecule, the KIDNEY_L (24 h) was 1 g, the KIDNEY_R (24 h) was 0.9 g and the KIDNEY_TOTAL (24 h) was 1.9 g. For the same molecule, the LIVER (24 h) was 8.4 g, the A/G (24 h) was 0.9 and the ALP (24 h) was 1381.2 IU/L. For the same molecule, the ALT (24 h) was 46.2 IU/L, the AST (24 h) was 96.4 IU/L and the BUN (24 h) was 11.8 mg/dL. The CRE (24 h) was 0.2 mg/dL, the Ca (24 h) was 10.9 mg/dL and the Cl (24 h) was 104.8 meq/L. It also gave a DBIL (24 h) of 0.078 mg/dL, a GLC (24 h) of 175.2 mg/dL and an IP (24 h) of 9.7 mg/dL. The K (24 h) was 4.1 meq/L, the LDH (24 h) was 102.4 IU/L and the Na (24 h) was 142.4 meq/L. For the same molecule, the PL (24 h) was 166.6 mg/dL, the RALB (24 h) was 2.7 g/dL and the TBIL (24 h) was 0.078 mg/dL. The TC (24 h) was 97.6 mg/dL, the TG (24 h) was 57 mg/dL and the TP (24 h) was 5.8 g/dL. The gamma-GTP (24 h) was 1 IU/L.
